{
  "source": "patent US11753453B2",
  "about": "“Peptide kinase inhibitors and methods of use thereof” (B.G. NEGEV TECHNOLOGIES AND APPLICATIONS LTD., priority 2017, dated 2023)",
  "molecules": {"B1": {"name": "SEQ ID NO: 33: shRNA sequence for targeting PKCη expression (nucleic acid)", "chain": "GATCCCCGGCCCGTCTTAACTCCGATTGATCTCGATCAATCGGAGTTAAGACGGGTTTTTG"}},
  "key": {"MCF7 (breast cancer)": {"tested_on": "MCF7 (breast cancer)", "test": "Scratch (wound healing) assay, MCF7", "format": "cell-based", "protocol": "(§1) FIG. 3A is a photograph taken from the scratch assay performed on MDA-MB-231 cells. Cells were seeded in 24-well plate and incubated for 4 hours with the indicated peptides in a free-serum media. After 4 hours, a scratch was made with a 200 μl pipette tip. Photographs of a selected area of each scratch were taken at indicated time points. Areas were measured by ImageJ software. FIGS. 3B-3D are graphs representing the analysis of the scratch assay performed as described in […] on cell lines MDA-MB-231, MCF-7 and MCF10A, respectively. All values were normalized to time 0 of each well and presented in percentage.\n(§2) MCF-7 and MDA-MB-231 cells were seeded in 24-well plates and grown to full confluency. Subsequently, media with low serum (2% to MCF-7 and 0.1% to MDA-MB-231) containing the peptides were added to the wells for 4 h. Then, a scratch was placed in the middle of the well with a sterile 200 μl pipette tip (Eppendorf). After washing once with PBS, the respective treatments were returned. Wells were photographed at total magnification of 4× with an IX70 Olympus Optical light microscope (Tokyo, Japan). 3 Images for each well were taken every 24 h.\n(§3) The in vitro effect of PKCeta uORF2 on cancer cell migration was tested […] by a standard scratch test assay, as described above. […]"}, "MDA-MB-231 [1]": {"tested_on": "MDA-MB-231", "test": "PrestoBlue cell viability/proliferation assay, MDA-MB-231", "format": "cell-based", "conditions": "compared with uPEP9-26, uPEP18-26 and ηPS", "protocol": "(§4) FIGS. 4A-4D show the ability of the peptide encoded by uORF2 (uPEP21-26) to reduce viability of breast cancer and glioblastoma cells. FIG. 4A: MCF-7 cells were seeded onto 48-well plates. 24 hours later, the cells were incubated for 24 hours with the indicated peptides). Following incubation, the medium with tested peptide was gently aspirated from each well and 25 μL of PrestoBlue reagent was added to each well of the 48-well plate and incubated at 37° C. in 5% CO2 for 15 min, as recommended. The absorbance was detected by ‘Infinite M200 PRO’ reader. FIGS. 4B-4D are the results of experiments identical to that described by FIG. 4A, but performed on cells lines U251 MG (glioblastoma cell line), MDA-MB-231 and MCF10A, respectively.\n(§5) MCF-7 and MDA-MB-231 cells were seeded at 2×10^4 cells/well in 48-well plates. After 24 h serum free-media containing the peptides was added to the wells for 4 h. Then, medium with serum was added and the plate was incubated for 24 h at incubator (5% CO2 humidified atmosphere at 37° C.). Following incubation, the medium with tested peptide was gently aspirated from each well and 25 μL of PrestoBlue™ reagent (Thermo #A13261) was added to each well of the 48-well plate and incubated at 37° C. in 5% CO2 for 15 min, as recommended. The absorbance was recorded at 570 nm and detected by ‘Infinite M200 PRO’ reader. […]"}, "[2]": {"tested_on": "PKCs from the novel PKC subfamily", "test": "In vitro kinase assay on PKC subfamilies", "format": "biochemical", "conditions": "peptide at 2 μM; normalized to control without peptide", "protocol": "(§6) FIG. 2A is a schematic view of the peptides derived from PKCη and used in the examples described herein. uPEP1-26 refers to the complete peptide encoded by uORF2; uPEP9-26 and uPEP18-26 refer to control peptides, which lack the PS motif; ηPS refer to a peptide containing the internal PS domain of PKCη. […] The kinase activity of PKCη was measured using Myelin Basic Protein (p-MBP) as a substrate and γ-^32P radioactive kinase assays. All values were normalized to the control sample without a peptide (Cont.). The data shown are the means of three separate experiments, and is also presented as the gel in FIG. 2C. FIG. 2D: Kinase assays were conducted as described in FIG. 2B, using uPEP1-26 at 2 μM concentration are depicted. All values were normalized to the control sample (without peptide). The data shown are the means of three separate experiments.\n(§7) Immunoprecipitations were performed by using pre-absorbed mAbs on protein A/G-agarose beads for 1 h at room temperature. Excess Abs was removed by 3 washes in cold phosphate buffered saline (PBS) and Ab-coated beads were incubated with cell lysates overnight at 4° C. Immune complexes were precipitated by centrifugation followed by extensive washing with RIPA buffer without SDS (10 mM Tris-HCl pH 8.0, 100 mM NaCl, 5 mM EGTA, 1% NP-40, 45 mM β-mercaptoethanol, and 50 mM NaF). […] Kinase activity was evaluated with exposing reagents. […]"}, "[3]": {"tested_on": "MDA-MB-231 (breast cancer)", "test": "Scratch (wound healing) assay, MDA-MB-231", "format": "cell-based", "conditions": "MDA-MB-231, scratch assay", "protocol": "as §1, §2, §3"}, "[4]": {"tested_on": "U251 MG (glioblastoma cell line)", "test": "PrestoBlue cell viability/proliferation assay, U251 MG", "format": "cell-based", "conditions": "compared with uPEP9-26, uPEP18-26 and ηPS", "protocol": "as §4, §5"}, "PKCη": {"biological_target": "T1, PKCη (Homo sapiens, UniProt P24723)", "T1 construct": "HA; expressed in transfected cells", "T1 sequence (P24723 whole entry)": "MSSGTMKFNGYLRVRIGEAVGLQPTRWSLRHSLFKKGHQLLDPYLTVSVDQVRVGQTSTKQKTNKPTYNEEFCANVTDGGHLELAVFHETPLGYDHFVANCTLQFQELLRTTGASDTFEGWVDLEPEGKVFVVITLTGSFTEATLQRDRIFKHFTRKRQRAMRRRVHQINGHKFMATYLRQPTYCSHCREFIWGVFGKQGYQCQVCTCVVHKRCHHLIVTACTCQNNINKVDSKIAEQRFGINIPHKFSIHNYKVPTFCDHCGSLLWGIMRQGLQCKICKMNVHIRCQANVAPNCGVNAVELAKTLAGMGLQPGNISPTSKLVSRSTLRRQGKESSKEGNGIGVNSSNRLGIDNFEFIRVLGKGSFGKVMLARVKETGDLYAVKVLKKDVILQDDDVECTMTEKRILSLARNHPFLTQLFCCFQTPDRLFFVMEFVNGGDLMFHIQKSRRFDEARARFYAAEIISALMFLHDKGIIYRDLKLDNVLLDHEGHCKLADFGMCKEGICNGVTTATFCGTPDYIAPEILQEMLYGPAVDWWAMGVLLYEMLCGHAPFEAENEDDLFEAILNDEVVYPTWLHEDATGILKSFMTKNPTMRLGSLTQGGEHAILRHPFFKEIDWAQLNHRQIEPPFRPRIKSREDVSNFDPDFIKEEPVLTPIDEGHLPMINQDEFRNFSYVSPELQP", "test": "In vitro kinase assay of PKCη with Myelin Basic Protein as substrate", "format": "biochemical", "conditions": "p-MBP, γ-32P radioactive kinase assay; compared to control peptide uPEP9-26 and ηPS; peptides 2 or 10 μM", "protocol": "as §6, §7"}, "MCF7": {"tested_on": "MCF7", "test": "PrestoBlue cell viability/proliferation assay, MCF7", "format": "cell-based", "conditions": "compared with uPEP9-26, uPEP18-26 and ηPS", "protocol": "as §4, §5"}, "MCF-7": {"tested_on": "MCF-7", "test": "XTT cell viability assay, MCF-7", "format": "cell-based", "conditions": "5 μM and 10 μM, compared to the other peptides", "protocol": "(§8) FIGS. 6A-6C show the efficacy of uORF2-encoded peptide mutated at position 10 (uPEP1-26[c/a]) in reducing cell viability on various cell lines. FIG. 6A: MCF-7 cells were seeded in 96 well plate and incubated for 24 hours with the indicated peptides. After 24 hours, the proliferation rate was monitored using XTT kit (Biological Industries, Israel) according to the manufacturer's instructions.\n(§9) Cells were seeded on 96-wells plate at a cell density of 20,000 cells/well and were grown for 48 hours. Cells were treated as indicated for 48 hours. A XTT (#20-300-1000, Biological Industries) reaction solution was prepared (containing the XTT and activation solutions) and added (50 μl/well) into cell medium for 2-4 hours at 37° C. The plate was immediately read in an ELISA plate reader at 450-500 nm. Background reading was performed at 630 nm, and the results calculated as the differences between the values.\n(§10) A uPEP21-26[10C/A] mutation of the PKCeta uORF2 peptide (SEQ ID NO: 1) was synthesized containing an alanine substitution at Cys-10, herein referred to as SEQ ID No 5. Cell lines MCF-7 (FIG. 6A), MDA-MB-231 (FIG. 6B) and HeLa (FIG. 6C) were treated with uPEP218-26, uPEP21-26, uPEP21-26[10C/A], uPEP21-17 and ηPS at doses of 5 μM and 10 μM in order to determine cell proliferation."}, "MDA-MB-231 [5]": {"tested_on": "MDA-MB-231", "test": "XTT cell viability assay, MDA-MB-231", "format": "cell-based", "conditions": "5 μM and 10 μM, compared to the other peptides", "protocol": "as §8, §9, §10"}, "HeLa": {"tested_on": "HeLa", "test": "XTT cell viability assay, HeLa", "format": "cell-based", "conditions": "5 μM and 10 μM, compared to the other peptides", "protocol": "as §8, §9, §10"}, "4T1 cells": {"tested_on": "4T1 cells", "test": "Breast 4T1 mouse model with PKCη knockdown cells", "format": "in vivo", "conditions": "4T1 cells expressing shRNA vs scrambled control, female BALB/c mice", "protocol": "FIG. 7A: 4T1 cells expressing shPKCη (SEQ ID NO: 33) or scrambled control were injected into mammary fat pad of 8-week-old female BALB/c mice. Tumor diameters were measured every week with vernier calipers. FIG. 7B: The mice were sacrificed after 8 weeks, and number of metastasis formed in the lungs was counted using Bouin's solutions. Error bars represent the mean±s.e.m, statistical analysis indicates for statistical significance in two-tailed, unpaired sample t-test.\nMice were anesthetized with a solution of 10 ml/mg Ketamine and 1.17 ml/mg xylazine, in saline. Anesthesia was injected intraperitoneally (IP) after sterilizing the inoculation area of the mice with 70% ethanol solution. Using a 27-gauge needle, 4T1 control and shPKCη knockdown cells (transfected with SEQ ID NOs 33-35 or scrambled control (obtained from the ATCC) were injected a few millimeters from the nipple, underneath the skin (120,000 cells in 50 μl per mouse).\nEach week, mice were tested for tumors and the primary tumors were examined by caliper. After 10 weeks, mice were euthanized and examined for metastases in lung, liver and spleen, and samples were prepared for immuno staining.\nTo test the in vivo effects of PKCeta on tumor formation, the establishment and growth of breast cancer cells with (4T1 control cells) and without PKCeta (PKCeta knockdown 4T1 cells) was compared."}},
  "data": [
    {"molecule": "uPEP1-26: full-length human PKCeta uORF2 peptide, 26 amino acids; MASRGALRRXLSPGLPRLLHLSRGLA wherein X is C (MASRGALRRCLSPGLPRLLHLSRGLA; listed as Homo sapiens)", "values": [
      {"measurement": "inhibition of cell migration", "setting": "MCF7 (breast cancer)", "value": "inhibited migration"},
      {"measurement": "inhibition of cell proliferation", "setting": "MDA-MB-231 [1]", "value": "inhibited cell proliferation the most"},
      {"measurement": "inhibition of kinase activity of PKCs from the novel PKC subfamily", "setting": "[2]", "value": "strongly inhibits"},
      {"measurement": "inhibition of cell migration", "setting": "[3]", "value": "inhibited migration"},
      {"measurement": "inhibition of cell proliferation", "setting": "[4]", "value": "inhibited cell proliferation the most"},
      {"measurement": "inhibition of kinase activity of PKCη", "setting": "PKCη", "value": "strongest inhibitor"},
      {"measurement": "inhibition of cell proliferation", "setting": "MCF7", "value": "inhibited cell proliferation the most"}
    ]},
    {"molecule": "uPEP1-26[10C/A]: full-length PKCeta derived uORF peptide with alanine substitution at Cys-10; MASRGALRRXLSPGLPRLLHLSRGLA wherein X is A (MASRGALRRALSPGLPRLLHLSRGLA)", "values": [
      {"measurement": "reduction of cell viability", "setting": "MCF-7", "value": "efficiently reduced cell viability"},
      {"measurement": "reduction of cell viability", "setting": "MDA-MB-231 [5]", "value": "efficiently reduced cell viability"},
      {"measurement": "reduction of cell viability", "setting": "HeLa", "value": "efficiently reduced cell viability"}
    ]},
    {"molecule": "B1", "values": [
      {"measurement": "formation of tumor metastases (lungs)", "setting": "4T1 cells", "value": "inhibited the formation of tumor metastases"},
      {"measurement": "tumor volume over time", "setting": "4T1 cells; mammary fat pad", "value": "significant inhibition in tumor size"}
    ]}
  ]
}
